Tests used:
[1] = tested on: Th1 (chronic and acute atopic dermatitis) mediated inflammation; experiment: Ex vivo induced inflammation of human skin explants, Th1 stimulation; assay type: cell-based; conditions: topical at 40 h and 16 h prior to stimulation; degree comparable/improved to 1% hydrocortisone ointment (FIG. 6)
Experimental: (§1) The efficacy of CBDA-Me was compared to that of corticosteroid treatment in an ex vivo model of induced inflammation of human skin explants (see for example WO2019/063122 and WO2014/182655).
(§2) Freshly excised healthy human skin was dermatomed to an approximate thickness of 750±100 μm. The dermatomed skin was cut into 1 cm^2 sections and mounted onto static Franz cells with a dosing area of approximately 0.6 cm^2.
(§3) The experiment was performed as follows: • (i) Static Franz cells (n=4 per treatment), with an average surface area of approximately 0.6 cm^2 and a volume of approximately 2.0 mL were employed. • (ii) Skin was mounted onto the static Franz cell, Stratum corneum side up, and clamped into place. • (iii) The receptor compartment was filled with approximately 2 mL of warm (ca. 37° C.) Cornification media. • (iv) CBDA-Me or 1% Perrigo® hydrocortisone ointment (control) was applied topically at 40 hours and 16 hours prior to stimulation and was incubated at 37° C. with 5% C02. • (v) The contents of the receptor compartment from each cell was vacuum aspirated and replaced with 2 mL pre-warmed (ca. 37° C.) cornification media, containing either Th1 or Th17 stimulation cocktail. • (vi) Tissue explants were harvested at 24 hours post-stimulation and placed in RNAlater® solution for further processing. […]

[2] = tested on: Th17 (psoriasis) mediated inflammation; experiment: Ex vivo induced inflammation of human skin explants, Th17 stimulation; assay type: cell-based; conditions: topical at 40 h and 16 h prior to stimulation; degree comparable/improved to 1% hydrocortisone ointment (FIG. 7)
Experimental: as §1, §2, §3

[3] = tested on: DSS induced acute colitis; experiment: DSS induced acute colitis mouse model, Example 11; assay type: in vivo, C57BL/6 mice
Experimental: The therapeutic effect of CBDA-Me on inflammatory bowel disease (IBD) was examined in an acute colitis mouse model. Colitis was induced in 10 weeks old female C57BL/6 mice using dextran sodium sulphate (DSS). Mice were fed for 8 days with 2% (wt/vol) DSS in their drinking water. Mice were administered (3 animals in each group) one of the following treatments by gavage: CBD (400 mg/kg), CBDA-Me (10 mg/kg or 40 mg/kg), DSS alone (untreated control), prednisone (90 mg/kg, control), none (healthy mice).
(§4) Weight loss was measured on days 1, 3, 5, 8, and 10.
(§5) Next, the mice were sacrificed and the length of their colons were measured.
Cytokine levels of IL-6 and TNFα were measured using ELISA kits (R&D Systems, USA). Colon TNFα (FIG. 10), blood IL-6 (FIG. 11), and mouse endoscopic index of colitis severity (METICS) scoring levels (FIG. 12) were lower in mice treated with CBDA-Me compared to CBD. Representative photos of colonoscopy can be seen in FIG. 13A-13E.

[4] = tested on: chronic colitis in IL-10 KO mice; experiment: Chronic colitis mouse model (IL-10 KO), Example 12; assay type: in vivo; conditions: IL-10 KO mice fed twice a day for 13 weeks
Experimental: Mice with targeted discruption of the IL-10 gene (IL-10 KO) and littermate wild-type controls (IL-10 WT) were used (see for example Scheinin et al., Clin. Exp. Immunol., 2003, 133:38-43). After 4 weeks of age mice were fed twice a day for 13 weeks with one of the following treatments: CBD, CBDA-Me, an anti-TNF antibody (control), none (untreated control mice). The CBDA-Me efficacy is compared to CBD and controls.
Cytokine levels of IL-1B and TNFα were measured using ELISA kits (R&D Systems, USA). Colon TNFα (FIG. 14), blood IL-1b (FIG. 15), and mouse endoscopic index of colitis severity (MEICS) scoring levels (FIG. 16) were lower in mice treated with CBDA-Me compared to CBD.

[5] = tested on: Human Endometrial Stromal Cell Line (SHT290); experiment: In vitro endometriosis model: attachment and proliferation of endometrial stromal cells; assay type: cell-based; conditions: added to the medium; dose dependent fashion
Experimental: Cultured cells from Human Endometrial Stromal Cell Line (SHT290) were used. CBDA-Me was added to the medium and the attachment of cells and their proliferation rate were measured.

[6] = tested on: endometriosis induced by implantation of rat uterine cornu on the mesenterium; experiment: In vivo rat endometriosis model, pain response to oxytocin; conditions: day 24; injected intra-peritoneally after 21 days; as compared to the control (saline)
Experimental: Endometriosis was induced by implantation of rat uterine comu on the mesenterium. The tissue was allowed to proliferate in vivo for 21 days. After 21 days, rats in the control group were injected intra-peritoneally with saline while rats in the experimental group were injected with CBDA-Me. Pain response to oxytocin was measured on day 24. The pain response decreased by 50% in the group treated with CBDA-Me as compared to the control.

[7] = target: T1, serotonin 5-HT1A Receptor (Homo sapiens, UniProt P08908); conditions: CBDA activates the receptor; background statement; cited from earlier work
T1 sequence (P08908 1-422): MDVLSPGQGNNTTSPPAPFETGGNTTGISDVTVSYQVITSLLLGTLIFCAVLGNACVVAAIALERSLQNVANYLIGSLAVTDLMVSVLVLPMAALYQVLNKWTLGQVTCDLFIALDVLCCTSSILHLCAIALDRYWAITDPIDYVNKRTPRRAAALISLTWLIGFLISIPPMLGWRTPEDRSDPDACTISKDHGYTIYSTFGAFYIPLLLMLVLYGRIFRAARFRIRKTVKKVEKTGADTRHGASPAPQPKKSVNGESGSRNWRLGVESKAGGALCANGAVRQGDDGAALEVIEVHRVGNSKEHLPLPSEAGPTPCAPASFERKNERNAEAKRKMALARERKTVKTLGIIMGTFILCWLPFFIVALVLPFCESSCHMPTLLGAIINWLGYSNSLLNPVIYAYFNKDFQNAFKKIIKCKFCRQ

[8] = tested on: partial meniscectomy/ACL transection rat model of surgical induced osteoarthritis and pain induced incapacitance; experiment: Weight bearing in rat meniscectomy model versus hyaluronate and corticosteroid, Example 6; assay type: in vivo
Experimental: Rats were allowed to acclimatize for 1 week, followed by assessment of their weight bearing preference using an incapacitance meter. Unilateral medical meniscectomy and anterior cruciate ligament […] (MMX/ACLT) surgery was performed on the right knee of a subject rat. Weight bearing preference was tested before and after surgery. After 2 weeks, treatments with both intra-articular (1) and. intra-peritoneal (6) administrations of EPM301 began in the EPM301 group. In the hyaluronate (HA) and corticosteroid (CS) groups, a single intra-articular injection was performed 2 weeks after model induction. Weight bearing preference was then assessed 4 and 7 days after the start of therapy.
Wistar Rats (HsdHan female rats 225-249 grams) were acquired from Envigo. The rats were evaluated using an incapacitance tester. They were tested pre-operation, one-week post-operation, two weeks post-operation, prior to injection, 4 and 7 days post injections.
EPM-301 was dissolved in a solution mixture of 1:1:18 EtOH:cremophor:seline to a final concentration of 3.5 mg/mL. Hyaluronic acid (Arthrease, 1% sodium hyaluronate) and Dexamethasone (kem Pharma, Venus, 72, Pol. Ind. Colom II, 08228 Terrassa, Barcelona) were acquired.
Intra-articular (i.a.) injection was carried out with 100 uL and intra-peritoneal (i.p.) injections were carried out with 150 uL. All were injected i.a. in the first day. EPM-301 was injected via i.p. administration on the first day, and for 5 additional days everyday via i.p. administration.
Student's t-test was performed at the last follow-up time to determine effect of the therapy as primary endpoint. The level of significance was 0.05 alpha. ANOVA was used to compare all time points, a post-hob analysis with the Scheffe all comparisons method was performed. Calculations were performed using the Analyze-it Excel add-on function.
The percentage of weight bearing was calculated as the amount of weight born (in grams) on the right hind limb divided by the amount of weight born on the left hind limb. This ratio was expressed as percentage weight bearing. Prior to operation the Rt/Lt weight bearing in both groups was similar. There were 4 animals in the EPM-301 treated group and 8 animals in each of the HA and CS treated groups, with a total of 20 tested subjects.

[9] = tested on: DSS induced acute colitis; experiment: DSS induced acute colitis mouse model, EPM-301 versus EPM-302, Example 13; assay type: in vivo, C57BL/6 mice; conditions: 10 mg/kg
Experimental: Colitis was induced in 10 weeks old female C57BL/6 mice using dextran sodium sulphate (DSS). Mice were fed for 8 days with 2% (wt/vol) DSS in their drinking water. […] EPM-302 served as an additional control.
as §4, §5
Cytokine levels of IL-6 and TNFα were measured using ELISA kits (R&D Systems, USA). Colon TNFα (FIG. 19), blood IL-6 (FIG. 20), levels were lower in mice treated with CBDA-Me (EPM-301) as compared to EPM-302. Similarly, the MEICS score of EPM-301 treated subjects were also lower than EPM-302 treated subjects (FIG. 21). Representative photos of colonoscopy can be seen in FIG. 22A-22D.

[10] = target: T2, glucose transporter 2 (GLUT2) (Homo sapiens, UniProt P11168); experiment: 2-NBDG glucose uptake in transfected HEK293t cells; assay type: cell-based; conditions: 50-0.1 μM tested
T2 construct: expressed in transfected cells; host or cells: HEK293t
T2 sequence (P11168 1-524): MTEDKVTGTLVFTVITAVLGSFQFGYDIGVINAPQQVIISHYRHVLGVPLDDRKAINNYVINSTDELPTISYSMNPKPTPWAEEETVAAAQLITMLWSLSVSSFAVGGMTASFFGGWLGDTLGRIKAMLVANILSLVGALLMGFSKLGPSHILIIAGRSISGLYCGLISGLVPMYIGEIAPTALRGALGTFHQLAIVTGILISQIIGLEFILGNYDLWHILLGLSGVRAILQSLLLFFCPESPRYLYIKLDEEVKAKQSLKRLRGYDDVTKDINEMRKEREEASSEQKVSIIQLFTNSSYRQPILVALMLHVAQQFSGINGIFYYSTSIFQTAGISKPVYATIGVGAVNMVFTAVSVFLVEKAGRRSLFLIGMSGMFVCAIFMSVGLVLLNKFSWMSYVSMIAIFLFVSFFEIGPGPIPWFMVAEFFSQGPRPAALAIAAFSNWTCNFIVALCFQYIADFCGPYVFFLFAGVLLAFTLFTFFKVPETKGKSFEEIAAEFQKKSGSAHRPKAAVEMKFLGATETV
Experimental: In vitro assays for measuring glucose uptake were designed to assess whether EPM-301 and EPM-302 compounds are capable of inhibiting or increasing glucose uptake via glucose transporters (GLUTs).
Transfected HEK293t cells, which express the glucose transporter 2 (GLUT2), were cultured in a 96 well plate and maintained at 37° C. in 5% CO2 in DMEM medium supplemented with 10% FCS, 2 mM 1-glutamine, 1 mM sodium pyruvate, 100 U/mL penicillin, and […] streptomycin for 24 h. The medium was then washed with a choline chloride Na^+-free buffer (CCB), in which only GLUTs (and not the sodium/glucose transporters [SGLTs]) were active. The wells were then added with CCB/CCB+2-NBDG (a fluorescent derivative of glucose). Compounds were tested in a range of concentrations for their ability to inhibit/increase 2-NBDG uptake into the cells. After 1.5 h incubation, cells were washed with CCB and incubated with 1 μg/μL of Hoechst for 15 mins at 37° C. and protected from light. Fluorescence was measured by the Cytation-3 plate reader at ex:485 nm/em:528 nm and ex:350 nm/em:461 nm for 2-NBDG Hoechst, respectively. Results of the 2-NBDG levels were normalized to Hoechst levels of each well, and presented as a change in the uptake of 2-NBDG in comparison with Vehicle-treated group.
Vehicle solution (choline chloride buffer), EPM-301 (50-0.1 μM), and EPM-302 (50-0.1 μM) were used for the experiments.
Values are expressed as mean±SEM. Unpaired two-tailed student's t-test was used to determine the differences between the groups. Significance was set at p<0.05. *versus vehicle; #versus control.

SMILES: C=C(C)[C@@H]1CCC(C)=CC1c1c(O)cc(CCCCC)c(C(=O)OC)c1O (stereo in doubt) [EPM-301, cannabidiolic acid methyl ester]
- Th1 mediated inflammation (IFNγ, TNFα, IL1β, IL2, IL13 by RT-qPCR) [1]: inhibition
- Th17 mediated inflammation (IL17α, IL22, CXCL10, IL36g, SerpinB4 by RT-qPCR) [2]: inhibition
- weight loss ([3]; 40 mg/kg by gavage, compared to CBD (400 mg/kg), days 1-10 (FIG. 8)): reduced
- colon length ([3]; 40 mg/kg by gavage, versus CBD and untreated control mice, similar to prednisone (FIG. 9)): greater
- mouse endoscopic index of colitis severity scoring ([3]; compared to CBD (FIG. 12)): lower
- colon TNFα ([3]; compared to CBD, ELISA (FIG. 10)): lower
- blood IL-6 ([3]; compared to CBD, ELISA (FIG. 11)): lower
- colon TNFα ([4]; compared to CBD (FIG. 14)): lower
- blood IL-1b ([4]; compared to CBD (FIG. 15)): lower
- mouse endoscopic index of colitis severity (MEICS) scoring ([4]; compared to CBD (FIG. 16)): lower
- attachment of cells [5]: decrease
- proliferation rate [5]: decrease
- decrease of pain response to oxytocin [6]: 50%

SMILES: C=C(C)C1CCC(C)=CC1c1c(O)cc(CCCCC)c(C(=O)O)c1O (stereo not shown) [CBDA, 2,4-dihydroxy-3-[3-methyl-6-prop-1-en-2-ylcyclohex-2-en-1-yl]-6-pentylbenzoic acid]
- affinity for the 5-HT1A receptor relative to CBD [7]: significantly greater

SMILES: C[C@@H]1C[C@H]2[C@@H]3CCC4=CC(=O)C=C[C@]4(C)[C@@]3(F)[C@@H](O)C[C@]2(C)[C@@]1(O)C(=O)CO [CS, Dexamethasone, reference compound]
- Rt limb weight bearing ([8]; following injections, EPM-301 i.a. once plus i.p. 6 days, HA and CS single i.a. injection): 62.1%
- weight bearing ([8]; immediately prior to injection, two weeks following model induction (baseline before treatment)): 52.5%

SMILES: CCCCCc1cc(O)c(C2C=C(C)CCC2C(C)C)c(O)c1C(=O)OC (stereo not shown) [EPM-302]
- therapeutic effect [9]: not enough to induce a therapeutic effect
- concentration at which the effect on glucose transport was observed [10]: all concentrations tested
- glucose uptake (2-NBDG) in HEK293 cells ([10]; 1.5 h incubation, versus vehicle (FIG. 36A, 36B)): significantly reduce
